Measurements reported in patent US6906239B2, “Plant preparations” (priority 2002, dated 2005).

Legend:
white-rot fungus [1] = assay: White-rot fungus cultured on bagasse from treated sugar cane, lignin and chitin staining (Examples 5, 6, 8); type: cell-based, Phanerochaete chrysosporium; conditions: for Staining intensity Chitin / Staining intensity Lignin: fungus cultured three months, scale 9 to 0
Text: (§1) Phanerochaete chrysosporium, a lignin degrading fungus, was maintained on potato dextrose agar (PDA). Lignin degradation studies employed culturing the fungus in a liquid mineral salt medium that contained treated plant materials, such as bagasse from a plant that had been treated with a modified precursor preparation. The bagasse in the medium comprised the sole source of organic carbon for support of fungal growth. One inoculum “loop,” a standard tool used in the preparation and culturing of microbes, was used to inoculate the medium.
(§2) Staining intensity ratings were subjectively established on ten-point rating scales and used as qualitative rankings within each individual example. Unless otherwise indicated, staining for lignin present in bagasse was performed by both the phlorgluciol and hypochlorite/sulfite techniques and was rated subjectively on a ten-step scale, from most intense staining (9) to no staining (0). Staining for chitin present in the bagasse was also subjectively rated on a ten-step scale from most intense staining (9) to no staining (0). All staining techniques were performed in triplicate, unless otherwise indicated.
Technique 1: Place sections in a drop of saturated, aqueous phloroglucinol in 20% HCl. Lignin appears as deep red (9) to light purple (1).
Technique 2: Place sections in commercial hypochlorite bleach for five minutes and transfer to a 1% solution of sodium sulfite. Lignin appears as a bright red cherry color (9) that fades to brown (1) in approximately 1 hour.
Technique: Sections are autoclaved in saturated KOH for 10 minutes to convert chitin to chitosan. Washed sections are placed in a few drops of iodine-potassium iodide solution (2 gm KI in 100 ml water and add 0.2 gm I2) in 1% sulfuric acid. Abundant amounts of chitosans appear dark violet (9) and a lower concentration as a light blue stain (1). Care should be exercised since cellulose may also stain under these conditions. For this reason, if necessary, cellulose can be removed by flooding with Schweitzer's reagent (saturated copper hydroxide in ammonium hydroxide) prior to iodine-potassium iodide treatment.
In similar fashion to Example 4, sugar cane plants were treated at four weeks and also at two weeks before harvest, with five grams of the modified precursors described above, by drenching the sugar cane roots. Bagasse samples were then obtained and approximately 10 g used in the following experiment.
In this experiment, white-rot fungus was cultured on the bagasse samples for three months. Specifically, P. chrysosporium was maintained on PDA and then added to a liquid mineral salt medium that contained the treated plant materials, such as treated bagasse. One inoculum “loop,” a standard tool used in the preparation and culturing of microbes, was used to inoculate the bagasse-containing medium. The medium with the bagasse comprised the only sole source of organic carbon for support of fungal growth. After culturing the fungus on the bagasse stored in the liquid medium, the bagasse was collected from the medium and then stained for lignin and chitin.
Sugar cane plants were treated with either 0.5 g, 5 g or 50 g of 2,6-difluorocinnamic acid or 3-cholorcinnamic acid four weeks prior to harvest and also at two weeks prior to harvest. Thus, the total dosage of each modified precursor is either 1 g, 10 g, or 100 g. White-rot fungus was then cultured on the extracted bagasse samples for three months and lignin and chitin staining performed.
Glyphosine (Sigma Aldrich) is commercially available as a sugarcane ripener for use several weeks before harvest. In this example, glyphosine, at one-fourth the label rate (i.e., approximately 4 oz per acre), was added to 3-chlorocinnamic acid during drench treatments of 5 gm, both four weeks and two weeks prior to harvest. The label rate of glyphosine was 16 oz. White-rot fungus was cultured on the bagasse samples for three months according to the methodology described in Example 2.

Soil microorganisms [2] = assay: In situ soil degradation of bagasse from treated sugar cane (Example 9); conditions: 10 grams drench at 4 and 2 weeks before harvest, buried in soil six months, scale 9 to 0
Text: (§3) Fertile sandy loam topsoil in a cultivated field that had been used for the sequential cultivation of corn for the prior two years constituted the in situ environment. The field was located in the town Ingleside on the Eastern Shore of Maryland. The tissue burial and recovery work was completed in multiple marked plots.
as §2
Sugar cane plants were treated four weeks and two weeks before harvest with drench applications of 10 grams of one of the chemicals listed in Table 6, i.e., cinnamic acid, 2,6-difluorocinnamic acid, 3-chlorocinnamic acid or 2-chloro-4-hydroxybenzaldehyde. Approximately, 10 g of extracted bagasse samples were mixed equally with sand, and the mixture placed into a nylon sack and buried approximately 6 inches below the ground. The samples were buried in such a fashion for six months from the March through August time period. All staining was done in quintuplicate.

Soil microorganisms [3] = assay: In situ soil degradation of corn stalk from treated corn plants (Example 10); conditions: two sprays of 20 mM, buried in soil six months, scale 9 to 0
Text: Plants were cultivated in a greenhouse environment and modified precursors and control precursors were applied via a foliar spray. Treated plants were permitted to naturally mature, senesce and dry down. After dry down several centimeter long sections were taken from nodal and from internodal regions at the base of the stalk for further in situ soil treatment. After treatment, thin sections were made, stained and visually inspected. Observations were made with a dissecting or a light microscope.
as §3, §2
Treatment of corn plants included two sprays, both one month after seedling emergence and once at tasseling with a spray application of 20 mM of one of the chemicals listed in Table 7, i.e., cinnamic acid, 2,6-difluorocinnamic acid, 3-chlorocinnamic acid or 2-chloro-4-hydroxybenzaldehyde with a silicone spreader/sticker until runoff. Dried stalk samples were buried in soil, as described above, for six months from the March through August time period. All staining was done in quintuplicate.

white-rot fungus [4] = assay: White-rot fungus cultured on corn stalk fibrous extract from treated corn (Example 11); type: cell-based, Phanerochaete chrysosporium; conditions: for Staining intensity Chitin / Staining intensity Lignin: corn stalk, fungus cultured three months, scale 9 to 0
Text: as §1, §2
Glyphosate (Sigma Aldrich) is commercially available as a no-till herbicide for use with corn. In this example glyphosate at the one-fourth the label rate (i.e., approximately 3 oz per acre) was added to 3-chlorocinnamic acid. The label rate of glyphosate was 12 oz per acre. The glyphosate was applied through a spray treatment that included two sprays, both one month after seedling emergence and once at tasseling. The spray application was applied with a silicone spreader/sticker until runoff. White-rot fungus was cultured on potato dextrose agar and then use to inoculate a medium containing the corn stalk fibrous extract as described in Example 2 above. These samples were cultured under appropriate conditions for three months.

White rot fungus = White rot fungus cultured on plant samples treated with fungicidal candidates, lignin and chitin staining (Example 12 ii); type: cell-based, Phanerochaete chrysosporium; conditions: 100 ppm four weeks before harvest, fungus cultured three months, scale 9 to 0
Protocol: as §2
Tulip tree, White Pine and corn plants were treated with fungicidal candidates four weeks before harvest. White rot fungus (Phanerochaete chrysosporium) was then cultured on the plant samples for three months. Staining and quantification of lignin and chitin present in plant materials was performed as described above.

[5] = sugar cane bagasse, 5 g drench at 4 and 2 weeks before harvest
[6] = total dosage 1 gm (0.5 g at 4 and 2 weeks before harvest)
[7] = total dosage 10 gm (5 g at 4 and 2 weeks before harvest)
[8] = total dosage 100 gm (50 g at 4 and 2 weeks before harvest)
[9] = Example 8, 10 gm with Glyphosine at one-fourth the label rate
[10] = Example 8, 10 gm without glyphosine
[11] = two sprays of 20 mM with Glyphosate at one-fourth the label rate
[12] = two sprays of 20 mM, without glyphosate

## O=C(O)C=Cc1c(F)cccc1F [2,6-Difluorocinnamic Acid]
white-rot fungus [1]; [5]
  Staining intensity Chitin: 3
  Staining intensity Lignin: 5
white-rot fungus [1]; [6]
  Staining intensity Chitin: 5
  Staining intensity Lignin: 4
white-rot fungus [1]; [7]
  Staining intensity Chitin: 3
  Staining intensity Lignin: 6
white-rot fungus [1]; [8]
  Staining intensity Chitin: 2
  Staining intensity Lignin: 7
Soil microorganisms [2]
  Staining intensity Chitin: 4
  Staining intensity Lignin: 5
Soil microorganisms [3]
  Staining intensity Chitin: 6
  Staining intensity Lignin: 5

## O=C(O)CNCP(=O)(O)O [glyphosate, Glyphosate, reference compound]
white-rot fungus [4]; glyphosate at one-fourth the label rate added to the spray, corn
  Effect on effectiveness of halogen-substituted precursor molecules in reducing lignin biodegradation by white-rot fungi: increases the effectiveness

## COC(=O)Nc1nc2ccccc2[nH]1 [Carbendazim, methyl-2-benzimidazole carbamate]
White rot fungus; Corn plant
  Intensity of Chitin Stain: 2
  Intensity of Lignin Stain: 8
White rot fungus; Tulip tree
  Intensity of Chitin Stain: 1
  Intensity of Lignin Stain: 8
White rot fungus; White Pine tree
  Intensity of Chitin Stain: 2
  Intensity of Lignin Stain: 7

## O=Cc1ccc(O)cc1Cl [2-Chloro-4-hydroxybenzaldehyde]
white-rot fungus [1]; [9]
  Staining intensity Chitin: 2
  Staining intensity Lignin: 7
white-rot fungus [1]; [10]
  Staining intensity Chitin: 3
  Staining intensity Lignin: 6
white-rot fungus [1]; [5]
  Staining intensity Chitin: 4
  Staining intensity Lignin: 3
Soil microorganisms [2]
  Staining intensity Chitin: 3
  Staining intensity Lignin: 6
Soil microorganisms [3]
  Staining intensity Chitin: 3
  Staining intensity Lignin: 6

## c1ccc2[nH]c(-c3cscn3)nc2c1 [Thiabendazole, 2-(4-thiazolyl)benzimidazole]
White rot fungus; Corn plant
  Intensity of Chitin Stain: 1
  Intensity of Lignin Stain: 9
White rot fungus; Tulip tree
  Intensity of Chitin Stain: 1
  Intensity of Lignin Stain: 9
White rot fungus; White Pine tree
  Intensity of Chitin Stain: 2
  Intensity of Lignin Stain: 8

## O=C(O)C(F)=Cc1ccccc1 [alpha-Fluorocinnamic Acid]
white-rot fungus [1]; [5]
  Staining intensity Chitin: 6

## O=C(O)CN(CP(=O)(O)O)CP(=O)(O)O [Glyphosine, reference compound]
white-rot fungus [1]; glyphosine at one fourth the label rate added to the modified precursor, sugar cane
  Effect on recalcitrance of lignin to biodegradation by white-rot fungi conferred by halogen-substituted precursors: increases the effectiveness

## O=C(O)C=Cc1cccc(Cl)c1 [3-Cholorcinnamic Acid, 3-Cholorcinnamic acid]
white-rot fungus [1]; [9]
  Staining intensity Chitin: 2
  Staining intensity Lignin: 7
white-rot fungus [1]; [10]
  Staining intensity Chitin: 3
  Staining intensity Lignin: 5
white-rot fungus [1]; [5]
  Staining intensity Chitin: 7
  Staining intensity Lignin: 5
white-rot fungus [1]; [6]
  Staining intensity Chitin: 4
  Staining intensity Lignin: 4
white-rot fungus [1]; [7]
  Staining intensity Chitin: 2
  Staining intensity Lignin: 6
white-rot fungus [1]; [8]
  Staining intensity Chitin: 1
  Staining intensity Lignin: 7
Soil microorganisms [2]
  Staining intensity Chitin: 3
  Staining intensity Lignin: 6
Soil microorganisms [3]
  Staining intensity Chitin: 4
  Staining intensity Lignin: 7
white-rot fungus [4]; [11]
  Staining intensity Chitin: 2
  Staining intensity Lignin: 7
white-rot fungus [4]; [12]
  Staining intensity Chitin: 3
  Staining intensity Lignin: 6

## O=C(O)C=Cc1ccccc1 [Cinnamic Acid, reference compound]
white-rot fungus [1]; [5]
  Staining intensity Chitin: 9
  Staining intensity Lignin: 1
Soil microorganisms [2]
  Staining intensity Chitin: 8
  Staining intensity Lignin: 1
Soil microorganisms [3]
  Staining intensity Chitin: 9
  Staining intensity Lignin: 0-1

## CCCC1COC(Cn2cncn2)(c2ccc(Cl)cc2Cl)O1 (centres unmarked) [Propiconazole, 1-[[2-(2,4-dichlorophenyl)-4-propyl-1,3-dioxolan-2-yl]methyl]-1H-1,2,4-triazole]
White rot fungus; Corn plant
  Intensity of Chitin Stain: 1
  Intensity of Lignin Stain: 8
White rot fungus; Tulip tree
  Intensity of Chitin Stain: 2
  Intensity of Lignin Stain: 7
White rot fungus; White Pine tree
  Intensity of Chitin Stain: 1
  Intensity of Lignin Stain: 8

## O=Cc1cc(Br)c(O)c(Br)c1 [3,5-Dibromo-4-hydroxybenzaldehyde]
white-rot fungus [1]; [5]
  Staining intensity Chitin: 6
  Staining intensity Lignin: 5
